In series [1] the test system is Staphylococcus aureus 256E. Nature of the series: Antibacterial activity in vitro (MIC, agar dilution). It is filed as cell-based. The note with it: resistant strain Staphylococcus aureus 256E. The protocol:
(§1) The optically active quinoline carboxylic acid derivatives of the present invention were tested as to whether they could be useful as antibacterial compounds. In this regard, the compounds were measured for minimum inhibitory concentration (MIC: unit μg/ml) according to an agar dilution process (Hoechst 345) in which Muller-Hinton agars were diluted two fold. For comparison, ciprofloxacin and sparfloxacin were used as controls. Corresponding enantiomers and racemates of the compounds of interest were also used as comparative ones. Bacteria were inoculated at an amount of about 10^7 cfu/ml onto each agar. 18 hours after the inoculation at 37° C., the growth of the bacteria was observed. As to methicillin-resistant strains, their growth was observed 48 hours after the inoculation at […]. Hoechst standard strains were used as the test bacteria.
In general terms: In agar dilution, organisms are placed on agar that contains the substance at set levels.

For series [2], the system named is Staphylococcus epidermidis 329. The series is described as above. Conditions: resistant strain Staphylococcus epidermidis 329. In kind it is cell-based. As for the experimental part: as §1
In series [3] the test system is Staphylococcus aureus 690E. The description is as above. It is filed as cell-based. The note with it: resistant strain Staphylococcus aureus 690E. The protocol:
as §1

For series [4], the system named is Staphylococcus aureus 693E. Described as above. Conditions: resistant strain Staphylococcus aureus 693E. It is filed as cell-based. As for the experimental part: as §1
The test system of series [5] is Staphylococcus aureus 293. The description is as above. The note with it: resistant strain Staphylococcus aureus 293. In kind it is cell-based. As for the experimental part:
as §1

For series [6], the system named is Staphylococcus aureus 88E. The series is described as above. The note with it: resistant strain Staphylococcus aureus 88E. It is filed as cell-based. The protocol: as §1
The subject of series [7] is Staphylococcus aureus 121E. The series is described as above. It is filed as cell-based. The note with it: resistant strain Staphylococcus aureus 121E. The protocol: as §1
Series [8] has as its system Staphylococcus epidermidis 319. Described as above. It is filed as cell-based. Conditions: resistant strain Staphylococcus epidermidis 319. The protocol:
as §1

The subject of series [9] is Staphylococcus aureus 692E. The series is described as above. In kind it is cell-based. Conditions: resistant strain Staphylococcus aureus 692E. The protocol:
as §1

The test system of series [10] is Staphylococcus aureus 303. The description is as above. It is filed as cell-based. Conditions: resistant strain Staphylococcus aureus 303. As for the experimental part: as §1
In series [11] the test system is Staphylococcus aureus 241. The description is as above. In kind it is cell-based. The note with it: resistant strain Staphylococcus aureus 241. As for the experimental part:
as §1

The test system of series [12] is Staphylococcus aureus 179. The description is as above. It is filed as cell-based. Conditions: resistant strain Staphylococcus aureus 179. As for the experimental part: as §1
Series [13] has as its system Staphylococcus aureus 208E. The series is described as above. In kind it is cell-based. Conditions: resistant strain Staphylococcus aureus 208E. As for the experimental part:
as §1

Series [14] is described as follows: Phototoxicity test. In kind it is in vivo. The note with it: CD-1 female mice, oral 50 mg/kg; for Thickness of mice's ears after UV exposure, After 24 hr / Thickness of mice's ears after UV exposure, After 48 hr: UVA light source; for Thickness of mice's ears after UV exposure, After 24 hr / Thickness of mice's ears after UV exposure, After 48 hr / Thickness of mice's ears, Before UV exposure: 50 mg/kg; for edema and erythema observed after UV exposure / increase in ear thickness compared with before the UV exposure: after 48 hours of the UV exposure; for Thickness of mice's ears, Before UV exposure: baseline before UVA. As for the experimental part:
It is known that the presence of a halogen atom at the 8-position of the quinolone nuclei causes phototoxicity.
After 16 hours of starvation, CD-1 female mice were orally administered with a dose of 50 mg/kg of the compounds and allowed to be exposed for 4.5 hours to a UVA light source. The mice were located 15 cm away from the light source. Whether the mice were damaged in their ears was adopted as a main factor for the phototoxicity and determined after 24 hour and 48 hour UV exposure. The edema which the mice suffered were examined by measuring the thickness changes of their ears with the aid of electronic calipers and calculating average values. Also, an observation was made as to whether the mice suffered from erythema.

Setting [15] is: listed as Racemic mixture of Example 14 compound.
[16] abbreviates: listed as racemate of the compound of Example 14, 50 mg/kg.
[17] abbreviates: listed as enantiomer of the compound of Example 14, 50 mg/kg.

This note sets out measurements from US6649763B1, “Optically active quinoline carboxylic acid derivatives with 7-pyrrolidine substituents causing optical activity and a process for the preparation thereof” (Dong Wha Pharm. Ind. Co., Ltd., priority 1999, dated 2003).

SMILES strings stand for the structures. Some results are limits rather than exact numbers.

For the compound `CO/N=C1\CN(c2nc3c(cc2F)c(=O)c(C(=O)O)cn3C2CC2)CC1(C)CN.Cl` (racemic) [Racemate of Example 9 Compound], the “minimum inhibitory concentration (MIC)” value in series [1] is 0.007 µg/mL; in [2] it was 0.781 µg/mL; in [3], 0.004 µg/mL; in series [4], 0.007 µg/mL; in [5], 0.195 µg/mL; in series [6], 0.007 µg/mL. The “minimum inhibitory concentration (MIC)” value is 0.007 µg/mL in [7]; 0.391 µg/mL in series [8]; less than 0.002 µg/mL in series [9]; 0.195 µg/mL in [10]; 0.195 µg/mL in series [11]; 0.195 µg/mL in [12]. Also, the “minimum inhibitory concentration (MIC)” value in series [13] is 0.007 µg/mL.

In the case of `CO/N=C1\CN(c2c(F)c(N)c3c(=O)c(C(=O)O)cn(C4CC4)c3c2F)CC1(C)CN.Cl` (racemic) [Racemate of Example 14 Compound], the “minimum inhibitory concentration (MIC)” value in series [1] was less than 0.002 µg/mL; in [2] it was 0.098 µg/mL; in series [3] it was less than 0.002 µg/mL; in [4], less than 0.002 µg/mL; in series [5] it was 0.025 µg/mL; in series [6], less than 0.002 µg/mL. Moreover, the “minimum inhibitory concentration (MIC)” value in series [7] is less than 0.002 µg/mL; in series [8], 0.049 µg/mL; in [9], less than 0.002 µg/mL; in series [10], 0.025 µg/mL; in [11], 0.025 µg/mL; in series [12] it was 0.025 µg/mL. In series [13], the “minimum inhibitory concentration (MIC)” value was less than 0.002 µg/mL. Besides, in series [14] (setting [15]), the “Thickness of mice's ears after UV exposure, After 24 hr” value was 23.5 ± 1.31. The “Thickness of mice's ears after UV exposure, After 48 hr” value in series [14] (setting [15]) stood at 24.4 ± 2.33. Besides, the “edema and erythema observed after UV exposure” value in series [14] (setting [16]) was “moderate edema and erythema”. Also, in series [14] (setting [16]), the “increase in ear thickness compared with before the UV exposure” value turned out to be 39%. Moreover, the “Thickness of mice's ears, Before UV exposure” value in series [14] (setting [15]) is given as 17.6 ± 0.52.

Consider `CO/N=C1\CN(c2cc3c(cc2F)c(=O)c(C(=O)O)cn3C2CC2)CC1(C)CN.Cl` (racemic) [Racemate of Example 19 Compound], for which the “minimum inhibitory concentration (MIC)” value in [1] was 0.013 µg/mL; in series [2] it was 0.781 µg/mL; in [3], 0.007 µg/mL; in [4], 0.013 µg/mL; in series [5] it was 0.391 µg/mL; in [6] it was 0.013 µg/mL. In addition, the “minimum inhibitory concentration (MIC)” value is 0.013 µg/mL in [7]; 0.781 µg/mL in series [8]; 0.013 µg/mL in [9]; 0.391 µg/mL in series [10]; 0.391 µg/mL in [11]; 0.391 µg/mL in series [12]. The “minimum inhibitory concentration (MIC)” value in [13] turned out to be 0.013 µg/mL.

In the case of `CO/N=C1\CN(c2nc3c(cc2F)c(=O)c(C(=O)O)cn3C2CC2)CC1(C)CN.Cl` (single isomer, unassigned) [Enantiomer of Example 9 Compound], the “minimum inhibitory concentration (MIC)” value in series [1] turned out to be 0.025 µg/mL; in series [2], 12.500 µg/mL; in [3] it was 0.025 µg/mL; in series [4], 0.025 µg/mL; in series [5] it was 1.563 µg/mL; in series [6], 0.025 µg/mL. Besides, the “minimum inhibitory concentration (MIC)” value in [7] came to 0.049 µg/mL; in [8], 6.250 µg/mL; in series [9] it was 0.025 µg/mL; in [10] it was 0.781 µg/mL; in series [11], 1.563 µg/mL; in series [12] it was 1.563 µg/mL. Further, the “minimum inhibitory concentration (MIC)” value in [13] was 0.049 µg/mL.

Turning to `CO/N=C1\CN(c2c(F)c(N)c3c(=O)c(C(=O)O)cn(C4CC4)c3c2F)CC1(C)CN.Cl` (single isomer, unassigned) [Enantiomer of Example 14 Compound], the “minimum inhibitory concentration (MIC)” value in series [1] worked out at 0.013 µg/mL; in series [2] it was 1.563 µg/mL; in [3], 0.004 µg/mL; in series [4] it was 0.004 µg/mL; in series [5] it was 0.195 µg/mL; in [6] it was 0.007 µg/mL. In addition, the “minimum inhibitory concentration (MIC)” value is 0.013 µg/mL in series [7]; 0.781 µg/mL in [8]; 0.004 µg/mL in series [9]; 0.195 µg/mL in [10]; 0.195 µg/mL in [11]; 0.195 µg/mL in series [12]. Further, the “minimum inhibitory concentration (MIC)” value in series [13] was 0.013 µg/mL. Moreover, the “Thickness of mice's ears after UV exposure, After 24 hr” value in series [14] stood at 36.3 ± 3.01. In addition, the “Thickness of mice's ears after UV exposure, After 48 hr” value in series [14] amounted to 44.5 ± 4.0. The “edema and erythema observed after UV exposure” value in series [14] (setting [17]) is “serious edema and erythema”. Besides, the “increase in ear thickness compared with before the UV exposure” value in series [14] (setting [17]) is on record as 150%. The “Thickness of mice's ears, Before UV exposure” value in series [14] was found to be 17.8 ± 0.89.

As to `CO/N=C1\CN(c2cc3c(cc2F)c(=O)c(C(=O)O)cn3C2CC2)CC1(C)CN.Cl` (single isomer, unassigned) [Enantiomer of Example 19 Compound], the “minimum inhibitory concentration (MIC)” value in series [1] came out at 0.098 µg/mL; in series [2], 12.500 µg/mL; in series [3] it was 0.049 µg/mL; in [4], 0.098 µg/mL; in [5], 3.125 µg/mL; in series [6], 0.098 µg/mL. The “minimum inhibitory concentration (MIC)” value in [7] came out at 0.098 µg/mL; in [8], 12.500 µg/mL; in series [9], 0.049 µg/mL; in [10] it was 3.125 µg/mL; in series [11] it was 3.125 µg/mL; in series [12], 3.125 µg/mL. Moreover, in series [13], the “minimum inhibitory concentration (MIC)” value came to 0.098 µg/mL.
